For one experiment, the target named is T1, human PPARγ2 (Homo sapiens, UniProt P37231).
T1 construct: the amino acids 182 to 505 of human PPARγ2; expressed in transfected cells; host or cells: COS7 cells (African green monkey kidney)
T1 sequence (P37231 182-505): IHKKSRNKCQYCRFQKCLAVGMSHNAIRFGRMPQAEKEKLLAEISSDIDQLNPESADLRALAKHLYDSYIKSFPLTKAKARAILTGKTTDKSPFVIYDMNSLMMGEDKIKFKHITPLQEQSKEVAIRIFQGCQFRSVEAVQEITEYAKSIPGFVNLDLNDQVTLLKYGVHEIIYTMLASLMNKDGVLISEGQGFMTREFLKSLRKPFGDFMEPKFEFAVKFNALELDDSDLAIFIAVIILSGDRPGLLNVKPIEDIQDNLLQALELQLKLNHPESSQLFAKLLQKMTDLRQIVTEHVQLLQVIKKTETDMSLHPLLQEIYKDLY
Kind of experiment: PPARγ activation activity, Gal4-PPARγ2 LBD luciferase transfection assay in COS7 cells. In kind it is cell-based. The conditions noted are these: Gal4-human PPARγ2 LBD chimera, luciferase reporter, 16 hours. On the procedure: PPARγ Activation Activity
The agonistic activity of the compounds of the invention on PPARγ was measured based on the transfection assay using COS7 cells (DS Pharma Biomedical Co., Ltd., Osaka, Japan), which are the cell line derived from the kidney of the African green monkey. COS7 cells were cultured under 5% CO2 concentration, and DMEM medium containing 10% fetal bovine serum, glutamic acid, and antibiotics was used as a medium.
As an expression vector, a chimera in which DNA binding domain of Gal4, which is a yeast transcription factor, and ligand binding domain of human PPARγ2 are fused, i.e., a fused product between the amino acids 1 to 147 of Gal4 transcription factor and the amino acids 182 to 505 of human PPARγ2, was used. Furthermore, as a reporter vector, a firefly luciferase containing five copies of Gal4 recognition sequence in the promoter region was used. Plasmid transfection to the cells was performed according to a method which uses jetPEI (trade name, manufactured by Funakoshi Co., Ltd., Tokyo, Japan). Furthermore, β-galactosidase expression vector was employed as an internal standard.
After the transfection of the cells, the medium was replaced with a DMEM medium (containing […]) added with the test compound, and the cells were further cultured for 16 hours. After that, the luciferase activity and β-galactosidase activity in the cell lysis solution were measured.
For the present test, dimethyl sulfoxide (DMSO) was used for dissolution and dilution of the test compounds, and during the cell treatment, the DMSO concentration in DMEM medium (containing 1% serum) was adjusted to 0.1%. The 50% effective concentration of the test compound (EC50, 50% effect concentration) was calculated by using SAS Preclinical Package Ver 5.0 (trade name, manufactured by SAS institute Japan Co., Tokyo, Japan), which is a statistical analysis program.
On the technique in general: In a reporter assay the amount or activity of a reporter protein is the signal.

In experiment [1] the target is T2, angiotensin II type 1 receptor (Oryctolagus cuniculus, UniProt P34976).
T2 construct: By using a specimen of isolated rabbit blood vessels; from tissue; host or cells: rabbit (New Zealand White) thoracic aorta ring
T2 sequence (P34976 1-359): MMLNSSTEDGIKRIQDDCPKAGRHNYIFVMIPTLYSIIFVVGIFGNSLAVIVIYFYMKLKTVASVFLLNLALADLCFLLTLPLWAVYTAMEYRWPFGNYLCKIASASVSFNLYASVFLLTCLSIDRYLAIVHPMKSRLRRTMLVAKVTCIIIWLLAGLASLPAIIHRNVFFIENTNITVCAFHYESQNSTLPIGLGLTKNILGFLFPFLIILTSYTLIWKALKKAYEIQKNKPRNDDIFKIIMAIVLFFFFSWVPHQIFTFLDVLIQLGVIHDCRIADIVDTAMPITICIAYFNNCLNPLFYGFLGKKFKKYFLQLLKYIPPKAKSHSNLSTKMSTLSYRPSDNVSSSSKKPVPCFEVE
Kind of experiment: Angiotensin II antagonistic activity in isolated rabbit blood vessels. The conditions noted are these: angiotensin II (10 nM)-induced contraction of rabbit thoracic aorta ring; read-out: Angiotensin II 50% inhibition concentration. An excerpt:
Angiotensin II Antagonistic Activity in Isolated Rabbit Blood Vessels
By using a specimen of isolated rabbit blood vessels, antagonistic activity of the compounds of the invention against angiotensin II type 1 receptor was estimated from a dose-response curve of angiotensin II-induced blood vessel contraction. Specifically, the specimen of thoracic aorta ring of a rabbit (New Zealand White: male, 2.4 to 3.0 kg) was suspended in a magnus bath filled with Krebs-Henseleite buffer (composition: 118 mM NaCl, 4.7 mM KCl, 2.55 mM CaCl2, 1.18 mM MgSO4, 1.18 mM KH2PO4, 24.88 mM NaHCO3, and 11.1 mM D-glucose), and angiotensin II (10 nM)-induced contraction was obtained in the presence of the compounds of each Example (1 nmol/L to 10 μmol/L). During the measurement, the inside temperature of the magnus bath was maintained at 37° C. and the bath was continuously ventilated with a sufficient amount of mixed gas (95% O2 and 5% CO2). The angiotensin II-induced contraction was converted into a relative value (%) that is based on the angiotensin II (10 nM)-induced contraction in the absence of the compounds of each Example. From the concentration-response curve obtained therefrom, 50% inhibition concentration (IC50 value) was calculated by using SAS Preclinical Package Ver 5.0 (trade name, manufactured by SAS institute Japan Co., Tokyo, Japan), which is a statistical analysis program. As described in the Table 1, it was confirmed that the compounds of the invention have a potent angiotensin II antagonistic activity.

Consider `CCCCc1nc(-c2ccc(F)cc2)c(CO)n1Cc1ccc(-c2ccccc2-c2noc(=O)[nH]2)cc1` [Example 1, 3-[4′-[{2-butyl-4-(4-fluorophenyl)-5-(hydroxymethyl)-1H-imidazol-1-yl}methyl]biphenyl-2-yl]-1,2,4-oxadiazol-5(4H)-one], for which the EC50 (in general, the concentration needed to bring the measured effect to its halfway point) at human PPARγ2 came to 1.52 µM.

Take `CCCCc1nc(-c2ccc(F)cc2)c(C(=O)OC)n1Cc1ccc(-c2ccccc2-c2noc(=O)[nH]2)cc1` [Example 2, methyl 2-butyl-4-(4-fluorophenyl)-1-[{2′-(5-oxo-4,5-dihydro-1,2,4-oxadiazol-3-yl)biphenyl-4-yl}methyl]-1H-imidazole-5-carboxylic acid]: the IC50 in experiment [1] amounted to 4.07 µM.

As to `CCCCc1nc(-c2ncc(OCC)cn2)c(CO)n1Cc1ccc(-c2ccccc2-c2noc(=O)[nH]2)cc1` [Example 4, 3-[4′-[{2-butyl-4-(5-ethoxypyrimidin-2-yl)-5-(hydroxymethyl)-1H-imidazol-1-yl}methyl]-biphenyl-2-yl]-1,2,4-oxadiazol-5(4H)-one], the EC50 on human PPARγ2 amounted to 1.48 µM. The IC50 in experiment [1] came to 1.04 µM.

For `CCCCc1nc(-c2ncc(OCC)cn2)c(CO)n1Cc1ccc(-c2ccccc2-c2nnn[nH]2)cc1` [Example 5, [1-[{2′-(1H-tetrazol-5-yl)biphenyl-4-yl}methyl]-2-butyl-4-(5-ethoxypyrimidin-2-yl)-1H-imidazol-5-yl]methanol], the IC50 in experiment [1] was 0.77 µM.

As for `CCCCc1nc(-c2ncc(OCC)cn2)c(C(=O)OC)n1Cc1ccc(-c2ccccc2-c2noc(=O)[nH]2)cc1` [Example 6, methyl 2-butyl-4-(5-ethoxypyrimidin-2-yl)-1-[{2′-(5-oxo-4,5-dihydro-1,2,4-oxadiazol-3-yl)biphenyl-4-yl}methyl]-1H-imidazole-5-carboxylic acid], on human PPARγ2, the EC50 was 0.56 µM. For the same molecule, the IC50 in experiment [1] was determined as 6.94 µM.

For the molecule `CCCCc1nc(-c2ncc(OCC)cn2)c(C(=O)OC)n1Cc1ccc(-c2ccccc2-c2nnn[nH]2)cc1` [Example 8, methyl 1-[{2′-(1H-tetrazol-5-yl)biphenyl-4-yl}methyl]-2-butyl-4-(5-ethoxypyrimidin-2-yl)-1H-imidazole-5-carboxylic acid], the EC50 on human PPARγ2 turned out to be 3.01 µM. Further, in experiment [1], the IC50 came to 1.01 µM.

Molecule `CCCCc1nc(-c2ccc(F)cc2)c(C(N)=O)n1Cc1ccc(-c2ccccc2-c2noc(=O)[nH]2)cc1` [Example 10, 2-butyl-4-(4-fluorophenyl)-1-({2′-(5-oxo-4,5-dihydro-1,2,4-oxadiazol-3-yl)biphenyl-4-yl}methyl)-1H-imidazole-5-carboxamide] had an EC50 at human PPARγ2 of 3.43 µM. Moreover, the IC50 in experiment [1] turned out to be 0.8 µM.

In the case of `CCCCc1nc(-c2ccc(F)cc2)c(C(=O)NCC)n1Cc1ccc(-c2ccccc2-c2noc(=O)[nH]2)cc1` [Example 11, 2-butyl-N-ethyl-4-(4-fluorophenyl)-1-[{2′-(5-oxo-4,5-dihydro-1,2,4-oxadiazol-3-yl)biphenyl-4-yl}methyl]-1H-imidazole-5-carboxamide], it took 2.28 µM to reach a half-maximal effect on human PPARγ2 (EC50). For the same molecule, the IC50 in experiment [1] is 5.69 µM.

On to `CCCCc1nc(-c2ccc(F)cc2)c(C(=O)N(CC)CC)n1Cc1ccc(-c2ccccc2-c2noc(=O)[nH]2)cc1` [Example 12], for which the EC50 at human PPARγ2 is 2.37 µM.

As for `CCCCc1nc(-c2ccc(F)cc2)c(C(N)=O)n1Cc1ccc(-c2ccccc2-c2nnn[nH]2)cc1` [Example 15, 1-[{2′-(1H-tetrazol-5-yl)biphenyl-4-yl}methyl]-2-butyl-4-(4-fluorophenyl)-1H-imidazole-5-carboxamide], the IC50 in experiment [1] amounted to 0.46 µM.

`CCCCc1nc(-c2ccc(F)cc2)c(C(=O)NCC)n1Cc1ccc(-c2ccccc2-c2nnn[nH]2)cc1` [Example 16, 1-[{2′-(1H-tetrazol-5-yl)biphenyl-4-yl}methyl]-2-butyl-N-ethyl-4-(4-fluorophenyl)-1H-imidazole-5-carboxamide]: in experiment [1], the IC50 is 0.99 µM.

Regarding `CCCCc1nc(-c2ccc(F)cc2)c(C(=O)N(CC)CC)n1Cc1ccc(-c2ccccc2-c2nnn[nH]2)cc1` [Example 17, 1-[{2′-(1H-tetrazol-5-yl)biphenyl-4-yl}methyl]-2-butyl-N,N-diethyl-4-(4-fluorophenyl)-1H-imidazole-5-carboxamide], the response at human PPARγ2 was half-maximal at 3.3 µM (EC50).

At human PPARγ2, `CCCCc1nc(-c2ccc(F)cc2)c(C(=O)N2CCOCC2)n1Cc1ccc(-c2ccccc2-c2nnn[nH]2)cc1` [Example 18, [1-[{2′-(1H-tetrazol-5-yl)biphenyl-4-yl}methyl]-2-butyl-4-(4-fluorophenyl)-1H-imidazol-5-yl](morpholino)methanone] came in with a 50% effective concentration (EC50) of 4.32 µM. Further, in experiment [1], the IC50 stood at 1.6 µM.

With `CCCCc1nc(-c2ccc(F)cc2)c(C(=O)N2CCCC2)n1Cc1ccc(-c2ccccc2-c2nnn[nH]2)cc1` [Example 19, [1-[{2′-(1H-tetrazol-5-yl)biphenyl-4-yl}methyl]-2-butyl-4-(4-fluorophenyl)-1H-imidazol-5-yl](pyrrolidin-1-yl)methanone], the IC50 in experiment [1] worked out at 6.98 µM.

With `CCCc1nc2c(C)cc(-c3nc4ccccc4n3C)cc2n1Cc1ccc(-c2ccccc2C(=O)O)cc1` [telmisartan, reference compound], the EC50 at human PPARγ2 lay within 1 to 5 µM.

These data come from patent US20120264753A1, “NOVEL 1-(BIPHENYL-4-YL-METHYL)-1H-IMIDAZOLE DERIVATIVE AND PHARMACEUTICAL PRODUCT CONTAINING SAME” (KOWA COMPANY, LTD., priority 2009, published 2012).
